According to paper PMC6501426 (Clinical Epigenetics, 2019):

Legend:
Assay in all cases: Kinase panel (Cerep)
Format in all cases: biochemical
KDR kinase (h) (VEGFR2) = target: T1, KDR kinase (h) (VEGFR2) (Homo sapiens, UniProt P35968); details: read-out: % inhibition at 10 µM by MC3353, KDR kinase (h) (VEGFR2), ATP 25 μM
T1 construct: purchased Eurofins Cerep
Protocol: (§1) The test compound, reference compound or water (control) were mixed with the enzyme (for the exact amount see table below) in the appropriate buffer. Thereafter, the reaction was initiated by adding the required amount of the appropriate substrate and of ATP, and the mixture is incubated at room temperature (variable reaction time, see table below). For control basal measurements, the enzyme was omitted from the reaction mixture. Following incubation, the reaction was stopped by adding 13 mM EDTA. After 5 min, the proper antibody labelled with europium chelate was added. After 60 more min, the fluorescence transfer was measured at λex=337 nm, λem=620 nm and λem=665 nm using a microplate reader (Envision, Perkin Elmer). The enzyme activity was determined by dividing the signal measured at 665 nm by that measured at 620 nm (ratio). The results are expressed as a percent inhibition of the control enzyme activity.

RAF-1 kinase (h) = target: T2, RAF-1 kinase (h) (Homo sapiens, UniProt P04049); details: read-out: % inhibition at 10 µM by MC3353, RAF-1 kinase (h), ATP 10 μM
T2 construct: purchased Eurofins Cerep
Protocol: as §1

FGFR1 kinase (h) = target: T3, FGFR1 kinase (h) (Homo sapiens, UniProt P11362); details: read-out: % inhibition at 10 µM by MC3353, FGFR1 kinase (h), ATP 100 μM
T3 construct: purchased Eurofins Cerep
Protocol: as §1

MARK1 (h) = target: T4, MARK1 (h) (Homo sapiens, UniProt Q9P0L2); details: read-out: % inhibition at 10 µM by MC3353, MARK1 (h), ATP 1 μM
T4 construct: purchased Eurofins Cerep
Protocol: as §1

JNK1 (h) = target: T5, JNK1 (h) (Homo sapiens, UniProt P45983); details: read-out: % inhibition at 10 µM by MC3353, JNK1 (h), ATP 10 μM
T5 construct: purchased Eurofins Cerep
Protocol: as §1

PKA (h) = target: T6, PKA (h) (Homo sapiens, UniProt P17612); details: read-out: % inhibition at 10 µM by MC3353, PKA (h), ATP 1 μM
T6 construct: purchased Eurofins Cerep
Protocol: as §1

SIK (h) = target: T7, SIK (h) (Homo sapiens, UniProt P57059); details: read-out: % inhibition at 10 µM by MC3353, SIK (h), ATP 30 μM
T7 construct: purchased Eurofins Cerep
Protocol: as §1

ROCK1 (h) = target: T8, ROCK1 (h) (Homo sapiens, UniProt Q13464); details: read-out: % inhibition at 10 µM by MC3353, ROCK1 (h), ATP 1 μM
T8 construct: purchased Eurofins Cerep
Protocol: as §1

AurA/Aur2 kinase (h) = target: T9, AurA/Aur2 kinase (h) (Homo sapiens, UniProt O14965); details: read-out: % inhibition at 10 µM by MC3353, AurA/Aur2 kinase (h), ATP 10 μM
T9 construct: purchased Eurofins Cerep
Protocol: as §1

CaMK2alpha (h) = target: T10, CaMK2alpha (h) (Homo sapiens, UniProt Q9UQM7); details: read-out: % inhibition at 10 µM by MC3353, CaMK2alpha (h), ATP 10 μM
T10 construct: purchased Eurofins Cerep
Protocol: as §1

IRK (h) (InsR) = target: T11, IRK (h) (InsR) (Homo sapiens, UniProt P06213); details: read-out: % inhibition at 10 µM by MC3353, IRK (h) (InsR), ATP 30 μM
T11 construct: purchased Eurofins Cerep
Protocol: as §1

PDK1 (h) = target: T12, PDK1 (h) (Homo sapiens, UniProt O15530); details: read-out: % inhibition at 10 µM by MC3353, PDK1 (h), ATP 10 μM
T12 construct: purchased Eurofins Cerep
Protocol: as §1

MNK2 (h) = target: T13, MNK2 (h) (Homo sapiens, UniProt Q9HBH9); details: read-out: % inhibition at 10 µM by MC3353, MNK2 (h), ATP 100 μM
T13 construct: purchased Eurofins Cerep
Protocol: as §1

FGFR3 kinase (h) = target: T14, FGFR3 kinase (h) (Homo sapiens, UniProt P22607); details: read-out: % inhibition at 10 µM by MC3353, FGFR3 kinase (h), ATP 10 μM
T14 construct: purchased Eurofins Cerep
Protocol: as §1

c-Met kinase (h) = target: T15, c-Met kinase (h) (Homo sapiens, UniProt P08581); details: read-out: % inhibition at 10 µM by MC3353, c-Met kinase (h), ATP 10 μM
T15 construct: purchased Eurofins Cerep
Protocol: as §1

CDC2/CDK1 (h) (cycB) = target: T16, CDC2/CDK1 (h) (cycB) (Homo sapiens, UniProt P06493); details: read-out: % inhibition at 10 µM by MC3353, CDC2/CDK1 (h) (cycB), ATP 10 μM
T16 construct: purchased Eurofins Cerep
Protocol: as §1

IKKalpha (h) = target: T17, IKKalpha (h) (Homo sapiens, UniProt O15111); details: read-out: % inhibition at 10 µM by MC3353, IKKalpha (h), ATP 5 μM
T17 construct: purchased Eurofins Cerep
Protocol: as §1

EGFR kinase (h) = target: T18, EGFR kinase (h) (Homo sapiens, UniProt P00533); details: read-out: % inhibition at 10 µM by MC3353, EGFR kinase (h), ATP 10 μM
T18 construct: purchased Eurofins Cerep
Protocol: as §1

Lck kinase (h) = target: T19, Lck kinase (h) (Homo sapiens, UniProt P06239); details: read-out: % inhibition at 10 µM by MC3353, Lck kinase (h), ATP 10 μM
T19 construct: purchased Eurofins Cerep
Protocol: as §1

Pim2 kinase (h) = target: T20, Pim2 kinase (h) (Homo sapiens, UniProt Q9P1W9); details: read-out: % inhibition at 10 µM by MC3353, Pim2 kinase (h), ATP 3 μM
T20 construct: purchased Eurofins Cerep
Protocol: as §1

ERK2 (h) (P42mapk) = target: T21, ERK2 (h) (P42mapk) (Homo sapiens, UniProt P28482); details: read-out: % inhibition at 10 µM by MC3353, ERK2 (h) (P42mapk), ATP 10 μM
T21 construct: purchased Eurofins Cerep
Protocol: as §1

NEK2 (h) = target: T22, NEK2 (h) (Homo sapiens, UniProt P51955); details: read-out: % inhibition at 10 µM by MC3353, NEK2 (h), ATP 10 μM
T22 construct: purchased Eurofins Cerep
Protocol: as §1

PAK4 (h) = target: T23, PAK4 (h) (Homo sapiens, UniProt O96013); details: read-out: % inhibition at 10 µM by MC3353, PAK4 (h), ATP 1 μM
T23 construct: purchased Eurofins Cerep
Protocol: as §1

T13 sequence (Q9HBH9 whole entry): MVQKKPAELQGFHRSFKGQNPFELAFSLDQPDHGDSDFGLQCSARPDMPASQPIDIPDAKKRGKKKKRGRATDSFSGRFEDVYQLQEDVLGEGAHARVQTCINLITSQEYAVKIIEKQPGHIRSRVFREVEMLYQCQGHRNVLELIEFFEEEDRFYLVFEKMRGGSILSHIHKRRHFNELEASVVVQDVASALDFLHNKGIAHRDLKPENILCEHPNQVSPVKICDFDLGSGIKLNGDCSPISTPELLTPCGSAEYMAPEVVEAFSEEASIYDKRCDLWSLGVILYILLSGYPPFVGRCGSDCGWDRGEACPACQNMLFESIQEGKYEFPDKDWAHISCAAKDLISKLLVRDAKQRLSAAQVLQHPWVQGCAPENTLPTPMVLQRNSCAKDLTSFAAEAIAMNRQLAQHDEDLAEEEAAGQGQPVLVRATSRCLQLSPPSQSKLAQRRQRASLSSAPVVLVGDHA
T9 sequence (O14965 whole entry): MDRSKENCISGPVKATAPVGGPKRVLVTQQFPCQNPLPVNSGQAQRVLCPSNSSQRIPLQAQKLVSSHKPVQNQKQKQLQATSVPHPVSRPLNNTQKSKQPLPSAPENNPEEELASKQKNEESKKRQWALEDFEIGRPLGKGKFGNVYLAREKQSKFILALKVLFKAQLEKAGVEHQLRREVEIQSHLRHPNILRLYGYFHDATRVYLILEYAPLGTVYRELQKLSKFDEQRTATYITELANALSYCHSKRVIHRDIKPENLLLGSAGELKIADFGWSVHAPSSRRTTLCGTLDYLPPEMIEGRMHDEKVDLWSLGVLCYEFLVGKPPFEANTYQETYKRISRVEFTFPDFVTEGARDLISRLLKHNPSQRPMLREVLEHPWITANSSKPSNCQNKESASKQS
T11 sequence (P06213 28-1382): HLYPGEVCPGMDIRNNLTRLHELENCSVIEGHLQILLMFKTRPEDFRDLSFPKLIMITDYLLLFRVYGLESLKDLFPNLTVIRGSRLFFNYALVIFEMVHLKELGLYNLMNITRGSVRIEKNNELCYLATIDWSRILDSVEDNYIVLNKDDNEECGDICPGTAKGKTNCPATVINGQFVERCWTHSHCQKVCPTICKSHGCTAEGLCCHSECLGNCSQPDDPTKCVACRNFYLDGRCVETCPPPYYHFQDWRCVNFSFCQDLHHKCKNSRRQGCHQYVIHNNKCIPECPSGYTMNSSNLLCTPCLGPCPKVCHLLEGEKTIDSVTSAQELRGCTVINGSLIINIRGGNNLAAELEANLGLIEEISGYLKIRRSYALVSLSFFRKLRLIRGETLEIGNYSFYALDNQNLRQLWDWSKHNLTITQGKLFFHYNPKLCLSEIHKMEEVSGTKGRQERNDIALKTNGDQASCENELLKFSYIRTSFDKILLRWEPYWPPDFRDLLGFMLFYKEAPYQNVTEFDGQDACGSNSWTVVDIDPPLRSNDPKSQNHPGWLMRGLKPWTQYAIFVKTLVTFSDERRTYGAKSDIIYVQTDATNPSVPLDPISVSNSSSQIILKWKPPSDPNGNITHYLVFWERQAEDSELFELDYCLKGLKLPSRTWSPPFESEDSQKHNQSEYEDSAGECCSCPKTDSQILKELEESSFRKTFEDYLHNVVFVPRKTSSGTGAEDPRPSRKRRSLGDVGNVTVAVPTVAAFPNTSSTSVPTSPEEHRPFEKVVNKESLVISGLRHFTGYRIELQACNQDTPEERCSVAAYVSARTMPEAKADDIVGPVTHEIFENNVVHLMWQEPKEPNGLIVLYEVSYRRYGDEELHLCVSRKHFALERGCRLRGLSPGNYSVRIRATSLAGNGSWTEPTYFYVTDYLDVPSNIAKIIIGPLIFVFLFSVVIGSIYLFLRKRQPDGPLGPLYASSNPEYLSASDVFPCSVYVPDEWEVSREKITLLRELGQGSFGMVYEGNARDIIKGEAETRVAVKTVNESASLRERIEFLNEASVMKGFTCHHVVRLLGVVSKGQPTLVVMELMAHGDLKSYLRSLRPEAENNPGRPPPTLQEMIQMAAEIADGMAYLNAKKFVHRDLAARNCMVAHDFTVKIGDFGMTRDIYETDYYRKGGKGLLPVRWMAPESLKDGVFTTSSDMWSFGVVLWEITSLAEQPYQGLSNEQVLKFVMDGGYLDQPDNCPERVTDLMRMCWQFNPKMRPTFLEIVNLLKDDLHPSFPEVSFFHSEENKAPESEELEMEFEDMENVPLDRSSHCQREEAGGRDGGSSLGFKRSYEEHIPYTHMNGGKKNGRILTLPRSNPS
T12 sequence (O15530 whole entry): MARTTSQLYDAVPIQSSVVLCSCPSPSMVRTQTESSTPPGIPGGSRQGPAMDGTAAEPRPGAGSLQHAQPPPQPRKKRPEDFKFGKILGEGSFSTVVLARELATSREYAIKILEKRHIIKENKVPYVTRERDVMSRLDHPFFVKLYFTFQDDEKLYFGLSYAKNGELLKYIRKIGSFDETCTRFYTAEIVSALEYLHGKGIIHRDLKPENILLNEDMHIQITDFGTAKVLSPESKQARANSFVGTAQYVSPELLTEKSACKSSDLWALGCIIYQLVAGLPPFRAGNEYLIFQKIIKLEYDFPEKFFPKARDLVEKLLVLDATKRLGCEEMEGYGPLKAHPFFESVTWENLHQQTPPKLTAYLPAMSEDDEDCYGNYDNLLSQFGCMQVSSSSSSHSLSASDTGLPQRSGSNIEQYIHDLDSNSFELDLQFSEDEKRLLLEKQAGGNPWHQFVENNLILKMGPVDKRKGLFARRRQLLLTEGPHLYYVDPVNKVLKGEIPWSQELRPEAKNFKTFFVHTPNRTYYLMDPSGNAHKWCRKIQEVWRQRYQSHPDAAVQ
T20 sequence (Q9P1W9 whole entry): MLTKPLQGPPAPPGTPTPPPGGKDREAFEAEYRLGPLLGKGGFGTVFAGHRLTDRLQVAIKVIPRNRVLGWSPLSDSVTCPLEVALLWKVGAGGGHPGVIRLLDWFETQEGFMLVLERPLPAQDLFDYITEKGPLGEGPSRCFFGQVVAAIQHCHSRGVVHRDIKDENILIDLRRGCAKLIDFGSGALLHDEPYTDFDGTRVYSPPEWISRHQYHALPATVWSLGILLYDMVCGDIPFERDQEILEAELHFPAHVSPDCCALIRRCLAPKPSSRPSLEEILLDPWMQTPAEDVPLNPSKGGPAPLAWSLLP
T3 sequence (P11362 22-822): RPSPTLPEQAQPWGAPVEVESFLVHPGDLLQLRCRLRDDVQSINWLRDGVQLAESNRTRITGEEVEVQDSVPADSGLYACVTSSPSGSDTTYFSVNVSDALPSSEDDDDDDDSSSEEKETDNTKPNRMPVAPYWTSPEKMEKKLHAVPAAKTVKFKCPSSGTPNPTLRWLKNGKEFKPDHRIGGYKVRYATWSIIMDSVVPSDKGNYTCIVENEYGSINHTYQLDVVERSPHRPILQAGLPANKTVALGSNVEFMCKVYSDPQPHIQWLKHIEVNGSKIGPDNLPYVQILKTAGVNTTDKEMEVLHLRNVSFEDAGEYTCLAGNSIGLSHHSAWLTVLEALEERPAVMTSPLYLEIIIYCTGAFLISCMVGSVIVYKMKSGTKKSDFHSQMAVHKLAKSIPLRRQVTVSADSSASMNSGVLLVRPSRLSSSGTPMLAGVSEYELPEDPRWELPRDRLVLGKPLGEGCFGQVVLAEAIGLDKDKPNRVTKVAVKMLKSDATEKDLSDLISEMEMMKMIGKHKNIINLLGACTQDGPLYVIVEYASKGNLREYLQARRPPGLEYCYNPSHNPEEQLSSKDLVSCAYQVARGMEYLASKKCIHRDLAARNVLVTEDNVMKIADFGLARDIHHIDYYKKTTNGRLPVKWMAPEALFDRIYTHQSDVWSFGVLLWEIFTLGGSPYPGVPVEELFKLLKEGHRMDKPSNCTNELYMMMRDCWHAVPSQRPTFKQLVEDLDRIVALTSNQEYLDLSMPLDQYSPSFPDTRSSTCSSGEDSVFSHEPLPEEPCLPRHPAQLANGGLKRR
T16 sequence (P06493 whole entry): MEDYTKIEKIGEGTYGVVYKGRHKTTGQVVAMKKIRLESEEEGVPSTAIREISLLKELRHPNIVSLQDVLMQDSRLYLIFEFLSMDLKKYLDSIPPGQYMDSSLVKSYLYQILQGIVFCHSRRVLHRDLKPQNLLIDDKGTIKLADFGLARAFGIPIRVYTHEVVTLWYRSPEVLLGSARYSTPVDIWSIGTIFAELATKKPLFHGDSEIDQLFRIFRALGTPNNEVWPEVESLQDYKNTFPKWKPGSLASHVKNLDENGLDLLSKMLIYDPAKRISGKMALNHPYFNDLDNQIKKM
T16 sequence (P14635 whole entry partner): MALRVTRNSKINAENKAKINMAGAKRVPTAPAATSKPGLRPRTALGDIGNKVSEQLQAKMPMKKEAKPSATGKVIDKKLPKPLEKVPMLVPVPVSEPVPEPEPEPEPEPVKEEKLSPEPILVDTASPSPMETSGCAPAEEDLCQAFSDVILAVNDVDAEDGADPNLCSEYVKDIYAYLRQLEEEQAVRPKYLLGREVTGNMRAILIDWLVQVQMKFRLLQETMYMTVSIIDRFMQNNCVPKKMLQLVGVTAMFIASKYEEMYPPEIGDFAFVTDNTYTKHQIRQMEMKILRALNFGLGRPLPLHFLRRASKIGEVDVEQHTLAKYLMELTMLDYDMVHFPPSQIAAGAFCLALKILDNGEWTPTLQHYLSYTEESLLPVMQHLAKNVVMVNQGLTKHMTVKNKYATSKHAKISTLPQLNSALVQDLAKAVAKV
T21 sequence (P28482 whole entry): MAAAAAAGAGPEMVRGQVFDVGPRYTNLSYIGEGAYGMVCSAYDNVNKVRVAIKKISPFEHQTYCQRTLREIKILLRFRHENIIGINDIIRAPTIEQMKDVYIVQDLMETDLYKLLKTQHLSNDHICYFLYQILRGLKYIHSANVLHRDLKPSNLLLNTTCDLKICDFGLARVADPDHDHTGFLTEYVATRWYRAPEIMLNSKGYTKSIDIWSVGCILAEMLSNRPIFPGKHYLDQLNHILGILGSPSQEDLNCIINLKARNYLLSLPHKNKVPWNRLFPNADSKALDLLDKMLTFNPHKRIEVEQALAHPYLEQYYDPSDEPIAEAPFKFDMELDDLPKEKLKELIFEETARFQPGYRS

## O=C(Nc1ccc(NC(=O)c2ccc(Nc3ccnc4ccccc34)cc2)cc1)OCc1ccccc1 [MC3353, Benzyl (4-(4-(quinolin-4-ylamino)benzamido)phenyl)carbamate]
KDR kinase (h) (VEGFR2)
  inhibition at 10 µM: -111%
RAF-1 kinase (h)
  inhibition at 10 µM: 60%
FGFR1 kinase (h)
  inhibition at 10 µM: -200%
MARK1 (h)
  inhibition at 10 µM: -116%
JNK1 (h)
  inhibition at 10 µM: -32%
PKA (h)
  inhibition at 10 µM: 27%
SIK (h)
  inhibition at 10 µM: 33%
ROCK1 (h)
  inhibition at 10 µM: -51%
AurA/Aur2 kinase (h)
  inhibition at 10 µM: 4%
CaMK2alpha (h)
  inhibition at 10 µM: -22%
IRK (h) (InsR)
  inhibition at 10 µM: 38%
PDK1 (h)
  inhibition at 10 µM: -149%
MNK2 (h)
  inhibition at 10 µM: 21%
FGFR3 kinase (h)
  inhibition at 10 µM: -169%
c-Met kinase (h)
  inhibition at 10 µM: -116%
CDC2/CDK1 (h) (cycB)
  inhibition at 10 µM: -25%
IKKalpha (h)
  inhibition at 10 µM: 18%
EGFR kinase (h)
  inhibition at 10 µM: 5%
Lck kinase (h)
  inhibition at 10 µM: 4%
Pim2 kinase (h)
  inhibition at 10 µM: 20%
ERK2 (h) (P42mapk)
  inhibition at 10 µM: -21%
NEK2 (h)
  inhibition at 10 µM: -9%
PAK4 (h)
  inhibition at 10 µM: -4%
